This is an account of results in patent US6946469B2, “Cyanamide, alkoxyamino, and urea derivatives of 4,4-disubstituted-3,4-dihydro-2(1H)-quinazolinones as HIV reverse transcriptase inhibitors” (Bristol-Myers Squibb Pharma Company, priority 2001, dated 2005).

For the assay, the system named is HIV-1 (RF). Put plainly: HIV RNA assay: microplate based compound evaluation in HIV-1 infected MT-2 cells. Format: cell-based. The following applies: Human immunodeficiency virus 1, MT2, 72 h; HIV-1 (RF) infected MT-2 cells, 3 days of culture; virus dilution selected to give this value (inoculum standardisation); read-out: IC90 value (concentration of compound required to reduce the HIV RNA level by 90%). The method, then:
MT-2 and MT-4 cells were maintained in RPMI 1640 supplemented with 5% fetal calf serum (FCS) for MT-2 cells or 10% FCS for MT-4 cells, 2 mM L-glutamine and 50 μg/mL gentamycin, all from Gibco. HIV-1 RF was propagated in MT-4 cells in the same medium. Virus stocks were prepared approximately 10 days after acute infection of MT-4 cells and stored as aliquots at −70° C. Infectious titers of HIV-1 (RF) stocks were 1-3×10^7 PFU (plaque forming units)/mL as measured by plaque assay on MT-2 cells (see below). Each aliquot of virus stock used for infection was thawed only once.
For evaluation of antiviral efficacy, cells to be infected were subcultured one day prior to infection. […]
Cell lysates or purified RNA in 3 M or 5 M GED were mixed with 5 M GED and capture probe to a final guanidinium isothiocyanate concentration of 3 M and a final biotin oligonucleotide concentration of 30 nM. […] Immobilized alkaline phosphatase activity was detected by addition of 100 μL of 0.2 mM 4-methylumbelliferyl phosphate (MUBP, JBL Scientific) in buffer δ(2.5 M diethanolamine pH 8.9 (JBL Scientific), 10 mM MgCl2, 5 mM zinc acetate dihydrate and 5 mM N-hydroxyethyl-ethylene-diamine-triacetic acid). […] Fluorescence at […] was measured using a microplate fluorometer (Dynateck) exciting at […]. […]

In brackets after ≈: the same amount, converted by molar mass.

`Nc1ccn([C@H]2CC[C@@H](CO)O2)c(=O)n1` [ddC, 2′,3′-dideoxycytidine]: the IC90 amounted to 0.2 µg/mL (≈ 0.947 µM).
